One data set concerns Gram-positive organisms. Put plainly: antibacterial activity, general statement. In kind it is cell-based. The settings on record: including organisms resistant to penicillins, macrolides and lincosaminides.
The nature of data set [1]: solubility (characterization). The format is physicochemical.
The conditions of data set [2]: in water; background statement; cited from earlier work.
The mark [3] stands for this setting: free acid form, in phosphate buffers at physiological pH (7.0-7.5).
Where [4] appears, read: in chloroform, methylene chloride.
The mark [5] stands for this setting: in ether and saturated hydrocarbon solvents.
Where [6] appears, read: in lower alcohols, ketones, ethyl acetate.

Like-named read-outs stand apart in the source and are kept apart here.

For `CC=C(NC(=S)SCC(NC(C)=O)C(=O)O)C(=O)OC1C(COC(C)=O)OC(C2(O)CC(=O)C(O)=C(C(N)=O)C2=O)C(O)C1OC1CC(OC)C(O)(C(C)OC(=O)C(C)CC)C(C)O1` (stereo not drawn) [Antibiotic 273a2α], in the data set with Gram-positive organisms, the “activity against Gram-positive organisms” value is on record as “active”. The Solubility entry is given as “soluble” in data set [1] (setting [3]); “insoluble” in data set [1] (free acid form, in water); “less soluble” in data set [1] (setting [4]); “insoluble” in data set [1] (setting [5]); “Soluble” in data set [1] (setting [6]); “soluble” in data set [1] (salts, in water).
Consider `CC=C(NC(=S)SCC(NC(C)=O)C(=O)O)C(=O)OC1C(COC(C)=O)OC(C2(O)CC(=O)C(O)=C(C(N)=O)C2=O)C(O)C1OC1CC(OC)C(O)(C(C)OC(=O)C(C)C)C(C)O1` (stereo not drawn) [Antibiotic 273a2β], for which the “activity against Gram-positive organisms” value with Gram-positive organisms is “active”. Moreover, the Solubility entry in data set [1] (setting [3]) is reported as “soluble”; in data set [1] (free acid form, in water), “insoluble”; in data set [1] (setting [4]), “less soluble”; in data set [1] (setting [5]) it was “insoluble”; in data set [1] (setting [6]), “Soluble”; in data set [1] (salts, in water), “soluble”.
Consider paulomycin, for which the Solubility entry in data set [2] is on record as “relatively insoluble”.

The record behind these values is EP0162568A2, “Paulomycin analogues and their preparation” (THE UPJOHN COMPANY, priority 1984, dated 1985).
